Here are results for four compounds from PMC11876601 (Molecular Systems Biology, 2025).

Test [1] addresses all target kinases identified with the Kinobeads technology. The experiment in a line: Kinobeads competition pulldown in AsPC-1 lysate, all kinases. The format is binding, human. To be noted: all targets other than ATR and ACVR2; read-out: KDapp of all other targets. Here is the method:
This was followed by incubation with Kinobeads ε (17.5 µl of settled beads) for 30 min at 4 °C to enrich kinases. […] Enriched proteins were reduced with 50 mM DTT in 8 M urea, 40 mM Tris-HCl, pH 7.4 for 30 min at room temperature, and alkylated with 55 mM chloroacetamide. After reducing the urea concentration to 1–2 M, proteins were digested with trypsin at 37 °C for 16 h. Subsequently, eluted peptides were desalted using SepPak tC18 µElution plates (Waters), freeze-dried by vacuum centrifugation, and stored at −20 °C.
For LC-MS/MS, dried peptides were reconstituted in 0.1% formic acid and analyzed on a Dionex Ultimate3000 nano HPLC (Thermo Scientific) coupled to an Orbitrap Fusion Tribrid mass spectrometer (Thermo Scientific), which was run in data-dependent mode. […]
Oxidized methionine and N-terminal acetylation were set as variable modification, and cysteine carbamidomethylation was set as fixed modification. Label-free quantification (LFQ) and match-between-runs were enabled. […]
Proteins were filtered by potential contaminants, reversed hits and proteins identified only by site. Residual binding of proteins was calculated from LFQ intensities as the ratio between drug doses and vehicle. […] Only kinases quantified with at least 4 unique peptides in the vehicle experiment were considered. […]

The next test deals with GAK. Conditions: 5 cell line mix lysate, Kinobeads ε, ref Reinecke et al. (2023), cited from earlier work.
In the next test the test system is ULK1. More on the design: method as in Reinecke et al. (2023). Conditions: ULK1, 5 cell line mix lysate, Kinobeads ε, ref Reinecke et al. (2023), cited from earlier work.
The next test deals with CAMKK2. More on the design: method as in Reinecke et al. (2023). Conditions: CAMKK2, 5 cell line mix lysate, Kinobeads ε, ref Reinecke et al. (2023), cited from earlier work.
A further test concerns LOC102724428;SIK1. More on the design: method as in Reinecke et al. (2023). Conditions: LOC102724428;SIK1, 5 cell line mix lysate, Kinobeads ε, ref Reinecke et al. (2023), cited from earlier work.
The test system of a further test is PRKAB1. More on the design: method as in Reinecke et al. (2023). Conditions: PRKAB1, 5 cell line mix lysate, Kinobeads ε, ref Reinecke et al. (2023), cited from earlier work.
A further test deals with YES1. Set-up: method as in Reinecke et al. (2023). To be noted: YES1, 5 cell line mix lysate, Kinobeads ε, ref Reinecke et al. (2023), cited from earlier work.
A further test concerns IKBKE. Set-up: method as in Klaeger et al. (2017). Conditions: lysate 4 cell line mix (Colo205, K-562, MV-4-11, and SK-N-BE(2)), Kinobeads y, ref Klaeger et al. (2017); cited from earlier work.
The next test relates to ACVR1B. More on the design: method as in Klaeger et al. (2017). To be noted: lysate 4 cell line mix (Colo205, K-562, MV-4-11, and SK-N-BE(2)), Kinobeads y, ref Klaeger et al. (2017); cited from earlier work.
A further test relates to PRKAB2. More on the design: method as in Klaeger et al. (2017). Conditions: lysate 4 cell line mix (Colo205, K-562, MV-4-11, and SK-N-BE(2)), Kinobeads y, ref Klaeger et al. (2017); cited from earlier work.
The test system of the next test is Capan-1. As to the kind of experiment: cells. More on the design: Viability of PDAC cell lines, ATPlite luminescence, 11-dose single-agent curve fit. Conditions: Homo sapiens, CAPAN-1, 72 h, read-out: EC50 [nM]. Summed up:
(§1)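 cells (1000 to 5000 per well) seeded 24 h before drug addition in a screen at 0.2% final DMSO. Controls were drug-free wells (negative) and 5 µM staurosporine (positive).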

A further test deals with Colo-357. As to the kind of experiment: cells. More on the design: Viability of PDAC cell lines, ATPlite luminescence, 11-dose single-agent curve fit. Conditions: Homo sapiens, COLO357, 72 h, read-out: EC50 [nM]. The gist of the method:
as §1

The next test deals with HPDE. As to the kind of experiment: cells. Set-up: Viability of PDAC cell lines, ATPlite luminescence, 11-dose single-agent curve fit. Conditions: HPDE, 72 h, read-out: EC50 [nM]. The gist of the method: as §1
For another test, the system named is HuP-T4. As to the kind of experiment: cells. Set-up: Viability of PDAC cell lines, ATPlite luminescence, 11-dose single-agent curve fit. To be noted: Homo sapiens, HuP-T4, 72 h, read-out: EC50 [nM]. Summed up:
as §1

For the next test, the system named is PANC-1. As to the kind of experiment: cells. More on the design: Viability of PDAC cell lines, ATPlite luminescence, 11-dose single-agent curve fit. To be noted: Homo sapiens, PANC-1, 72 h, read-out: EC50 [nM]. The gist of the method: as §1
Another test deals with PSN-1. As to the kind of experiment: cells. To be noted: Homo sapiens, PSN1, 72 h, read-out: EC50 [nM]. Set-up: Viability of PDAC cell lines, ATPlite luminescence, 11-dose single-agent curve fit. The gist of the method: as §1

The term EC50 denotes the concentration needed to bring the measured effect to its halfway point.

Consider `CNCc1ccc(-c2cc(-c3nc(-c4ccc(S(=O)(=O)C(C)C)cc4)cnc3N)on2)cc1` [Berzosertib], for which the Kd in test [1] was above 10 nM.
Regarding `COc1cc(N2CCC(N3CCN(C)CC3)CC2)ccc1Nc1ncc(Cl)c(Nc2ccccc2P(C)(C)=O)n1` [Brigatinib], the Kd on GAK (read-out: KDapp) was 5.8 nM; at ULK1 (read-out: KDapp), 37.9 nM; on CAMKK2 (read-out: KDapp), 40.4 nM; at LOC102724428;SIK1 (read-out: KDapp), 106 nM; on PRKAB1 (read-out: KDapp), 335 nM; at YES1 (read-out: KDapp) it was 339 nM. The EC50 was 10.3 nM in the test on GAK; 56.7 nM in the test with ULK1; 60.9 nM with CAMKK2; 106 nM in the test on LOC102724428;SIK1; 507 nM in the test with PRKAB1; 821 nM in the test on YES1. Besides, the pKDapp at GAK is reported as 8.24; on ULK1, 7.42; at CAMKK2 it was 7.39; at LOC102724428;SIK1, 6.98; on PRKAB1 it was 6.47; at YES1 it was 6.47.
As for `C[C@]12O[C@H](C[C@]1(O)CO)n1c3ccccc3c3c4c(c5c6ccccc6n2c5c31)CNC4=O` [Lestaurtinib], the figures for the EC50 in the test on IKBKE, with ACVR1B and with PRKAB2 were 1030 nM, […] and 3520 nM, respectively.
For the compound `CCN1CCN(Cc2ccc(Nc3ncc(F)c(-c4cc(F)c5nc(C)n(C(C)C)c5c4)n3)nc2)CC1` [Abemaciclib], the concentration giving a half-maximal response (EC50) in the test with Capan-1 is 245 nM; with Colo-357 it was 160 nM; in the test with HPDE, above 10000 nM; with HuP-T4, 7.93 nM; with PANC-1 it was 5540 nM; with PSN-1, 151 nM.
